Entries after “also recorded” stand apart in the source; their conditions may differ.
Legend:
[1] = system: senescent fibroblasts (after 37 cell passages); experiment: cell proliferation and colony formation, crystal violet stain; format: cell-based, human; settings: 4 weeks; for cell proliferation and cell colony formation: vs DMSO
Protocol: Fibroblast cell lines were cultured in Dulbecco's Modified Eagle's Media (DMEM) supplemented with 10% fetal bovine serum (FBS) and 100 unit/ml of penicillin, and 100 μg/ml of streptomycin (two antibiotics are purchased from Gibro-BRL and Grand Island, N.Y.) in a 5% CO2 incubator at 37° C. The fibroblast cell lines (M11 strain) were obtained from a foreskin of a child. Subculture was initiated when the cells were approximately 85% confluent in plates. Early subcultures were performed at a split ratio of 1:4, and later subcultures were performed at a split ratio of 1:2. When cell doubling time was 14 days, the cells were regarded as senescent fibroblasts (passages 35 to 37).
In order to determine optimum concentrations of Rho-kinase inhibitors Y-27632 (Selleckchem, S1049, 50 mg 2HCl salt form), FASUDIL (Selleckchem, S1573, 500 mg HCl salt form), and SR3677 (Synkinase, SYN1083, 10 mg), the senescent fibroblasts (after 37 cell passages) were seeded on each well of a 6-well plate in a concentration of 2,000 cells/well, and the wells were treated with 1 μM, 5 μM, 10 μM, 20 μM, and 30 μM of Y-27632, 1 μM, 5 μM, 10 μM, 20 μM, and 30 μM of FASUDIL, and 0.01 μM, 0.05 μM, 0.1 μM, 0.5 μM, and 1 μM of SR3677. In addition, a negative control group was prepared in the same manner, except that dimethyl sulfoxide (DMSO) was used. The culture media supplemented with the Rho-kinase inhibitors were changed at every 4 days, and colonies were stained with a 0.05% crystal violet stain after 4 weeks.

[2] = system: senescent fibroblasts (after 37 cell passages); experiment: cell cycle analysis (Muse Cell Cycle Kit); format: cell-based, human; settings: 5 μM; 4 weeks; vs DMSO control; FIG. 4
Protocol: The senescent fibroblasts (after 37 cell passages) were cultured in culture media respectively supplemented with 5 μM of Y-27632 (A), 5 μM of FASUDIL (B), and 0.5 μM of SR3677 (C) for 4 weeks in a 5% CO2 incubator at 37° C. The culture media were changed with new culture media respectively supplemented with 5 μM of Y-27632, 5 μM of FASUDIL, and 0.5 μM of SR3677 at every 4 days. Cell cycles were measured using a Muse™ Cell Cycle Kit (MERCK Millipore, MCH100106) in accordance with manufacturer's manuals. Light having a wavelength of 488 nm was irradiated to the cells using a Muse™ Cell Analyzer (MERCK Millipore) and light emission at 520 nm was measured. The results were analyzed using Cell Quest 3.2 software (Beckton Dickinson). The control group was prepared in the same manner, except that 0.05 (v/v) % of DMSO was added thereto.

[3] = system: full-thickness punch-biopsy wounds on the dorsal skin of old (19 months old) male C57BL/6J mice; experiment: cutaneous wound healing assay in aged mice; format: in vivo, mouse; settings: 0.5 mL 10 μM in 30% Pluronic gel applied to wounds every day, FIG. 23
Protocol: To further test whether ROCK inhibitor can promote cutaneous wound healing in old (19 months old) male mice (C57BL/6J mice), four full-thickness punch-biopsy wounds (8 mm in diameter)(four wound sites/mouse, five mice/group) were created on the dorsal skin of mouse, 0.5 mL 10 μM Y-27632 in 30% Pluronic gel (Pluronic F-127 Sigma, P2443-1KG) was applied to wounds every day, and then covered the wounds with Telfa sponges (Kendall Health Care, Mansfield, Mass., USA). DMSO was used as a control. All animal studies were reviewed and approved by the […] Animal Care and Use Committee of SKKU School of Medicine (SUSM). SUSM is an Association for Assessment and Accreditation of Laboratory Animal Care international accredited facility and abides by the Institute for Laboratory Animal Research guide. Wounds were photographed for 10 days. Immunohistochemistry analyses were performed on 5 μm paraffin embedded sections as described previously (Lin et. al., 2004. Developmental Biology 270, 474-486). Primary antibodies used for immunohistochemistry were mouse anti-α-smooth muscle actin (Sigma, F3777-2ML, 1:500), and mouse anti-PCNA (Santa Cruz Biotechnology, SC-56, 1:500). Secondary antibodies used for immunohistochemistry were EnVisionTM Detection System (DAKO, […]). […]

[4] = system: wound tissue of old (19 months old) male C57BL/6J mice; experiment: immunohistochemistry and Masson's trichrome staining of wound tissue sections; format: in vivo, mouse; settings: 10 μM in 30% Pluronic gel topical daily
Protocol: To further test whether ROCK inhibitor can promote cutaneous wound healing in old (19 months old) male mice (C57BL/6J mice), four full-thickness punch-biopsy wounds (8 mm in diameter)(four wound sites/mouse, five mice/group) were created on the dorsal skin of mouse, 0.5 mL 10 μM Y-27632 in 30% Pluronic gel (Pluronic F-127 Sigma, P2443-1KG) was applied to wounds every day, and then covered the wounds with Telfa sponges (Kendall Health Care, Mansfield, Mass., USA). DMSO was used as a control. All animal studies were reviewed and approved by the […] Animal Care and Use Committee of SKKU School of Medicine (SUSM). SUSM is an Association for Assessment and Accreditation of Laboratory Animal Care international accredited facility and abides by the Institute for Laboratory Animal Research guide. Wounds were photographed for 10 days. Immunohistochemistry analyses were performed on 5 μm paraffin embedded sections as described previously (Lin et. al., 2004. Developmental Biology 270, 474-486). Primary antibodies used for immunohistochemistry were mouse anti-α-smooth muscle actin (Sigma, F3777-2ML, 1:500), and mouse anti-PCNA (Santa Cruz Biotechnology, SC-56, 1:500). Secondary antibodies used for immunohistochemistry were EnVisionTM Detection System (DAKO, […]). Masson's trichrome staining was performed according to the manufacturer's instructions (Polysciences Inc., Warrington Pa., USA). An immunohistochemical analysis was carried out to investigate the mechanism underlying the wound-healing process. […] FIG. 24 represents an immunohistochemical experimental result showing that Y-27632 treatment plays an important role in wound healing in old mouse (19 months old). Wound tissue sections were also subjected to Masson's trichrome staining to assess collagen deposition in the cross-sectional area of remodeled tissue.

Structure (SMILES)	cell proliferation and cell colony formation ([1]; 5 μM, FIG. 1 B)	toxic effects on cell proliferation and cell colony formation ([1]; 10 μM, 20 μM, and 30 μM, FIG. 1 B)	number of cells in G0/G1 phases [2]	cell proliferation and cell colony formation ([1]; 0.5 μM, FIG. 1 C)	toxic effects on cell proliferation and cell colony formation ([1]; 1 μM, FIG. 1 C)	cell proliferation and cell colony formation ([1]; 5 μM, 10 μM, and 20 μM, FIG. 1 A)	toxic effects on cell proliferation and cell colony formation ([1]; 30 μM, FIG. 1 A)	wound healing (wound appearance) ([3]; day 10, DMSO-treated wounds still showed remnants of scabs)	wound healing process (wound size) ([3]; early points (days 3), vs DMSO, P<0.01)	Masson's trichrome staining (collagen deposition) ([4]; DMSO: diffuse in granulation tissue, FIG. 24)	site of proliferation by PCNA immunolabeling ([4]; DMSO: selective proliferation in granulation tissue, FIG. 24)	α-SMA immunoreactivity in wound area ([4]; control: high in granulation tissue, FIG. 24)	collagen thickness ([4]; relative to DMSO, P<0.01, FIG. 25)	number of PCNA-positive cells in the epidermis ([4]; vs control group, P<0.01, FIG. 26)
O=S(=O)(c1cccc2cnccc12)N1CCCNCC1 [FASUDIL, 5-(1,4-diazepane-1-sulfonyl)isoquinoline]	greatest therapeutic effects	reduces cell proliferation and cell colony formation due to toxic effects	less than that of cells in S and G2/M phases	–	–	–	–	–	–	–	–	–	–	–
CN(C)CCOc1cc(-c2cn[nH]c2)ccc1NC(=O)C1COc2ccccc2O1 (stereo not drawn) [SR3677]	–	–	–	greatest therapeutic effects	reduces cell proliferation and cell colony formation due to toxic effects	–	–	–	–	–	–	–	–	–
C[C@@H](N)[C@H]1CC[C@H](C(=O)Nc2ccncc2)CC1 [Y-27632, (1R,4R)-4-((R)-1-aminoethyl)-N-(pyridin-4-yl)cyclohexanecarboxamide]	–	–	less than that of cells in S and G2/M phases	–	–	greatest therapeutic effects	reduces cell proliferation and cell colony formation due to toxic effects	near completion	markedly accelerated	strong in the dermis area	proliferation was observed in the supra basal area of epidermis	diffuse in the dermis and was correlated with the appearance of collagen fibers	increased; also recorded: more dense and thicker collagen	higher
